Earlier results on two compounds are cited in patent publication US12673064B2, “Biodegradable drug-polymer conjugate” (POLYACTIVA PTY LTD, priority 2019, dated 2026).

Structures are written as SMILES.

The conditions of data set [1]: 0.002% dosage, week 1.

On to `CC(C)OC(=O)CNc1cccc(CN(Cc2ccc(-n3cccn3)cc2)S(=O)(=O)c2cccnc2)n1` [Omidenepag isopropyl], for which the “effectiveness versus latanoprost 0.005%” value in data set [1] was “more effective than latanoprost 0.005%”. As to `CCCCC[C@H](O)/C=C/[C@H]1[C@H](O)CC(=O)[C@@H]1SCCCSCC(=O)O` [3,7-dithia-PGE1], in the data set with monkeys, the “IOP and total outflow resistance” value is on record as “reduced”; the “uveoscleral outflow or aqueous flow” value is on record as “without affecting”.
